We go through 7 compounds from patent publication US20230310478A1, “METHODS AND COMPOSITIONS FOR THE TREATMENT OF PULMONARY HYPERTENSION AND CANCER” (Ann and Robert H. Lurie Children's Hospital of Chicago, priority 2020, published 2023).

pIC50: −log10 of the molar value. “Also recorded” adds a separate entry of the source. Counter-ions that a name gives are not always drawn.

Series [1] deals with SDF1. The series can be described thus: quantitative RT-PCR of PH-causing genes in DMOG-treated HLMVECs: SDF1. To be noted: 24 h, mean±SD.
Method: (§1) Regarding Table 2, human lung microvascular endothelial cells (ECs) were treated with 2-Dimethyloxalylglycine (DMOG, PHD inhibitor) and either vehicle (DMSO) or various HIF inhibitors for 24 h. RNA was isolated for quantitative RT-PCR analysis.
The test system of series [2] is PDGF-B. Put plainly: quantitative RT-PCR of PH-causing genes in DMOG-treated HLMVECs: PDGF-B. In kind it is cell-based, human. The conditions noted are these: 24 h, mean±SD.
Method: as §1
Series [3] has as its system Endothelin-1. Put plainly: quantitative RT-PCR of PH-causing genes in DMOG-treated HLMVECs: Endothelin-1. Format: cell-based, human. To be noted: 24 h, mean±SD.
Method: as §1
The test system of series [4] is MCT-challenged rats. The series can be described thus: monocrotaline (MCT) rat model of pulmonary hypertension. In kind it is in vivo. The protocol:
(A) Representative micrographs of Russel-Movat pentachrome staining of MCT-rat lungs. […] (B) Quantification of PA wall thickness in MCT rat lungs. […] Lung sections were immunostained with anti-α-smooth muscle actin (α-SMA) antibody (red); nuclei were counterstained with DAPI (blue). […] Scale bars: 50 μm.
FIG. 6. […] At 14 days post-MCT challenge, the rats were treated with HEAQ (20 mg/kg, oral, daily) or PBS for another 14 days.
RVSP was measured (A) and RV hypertrophy was calculated (B) at 28 days post-treatment. […] One-way ANOVA.
At 14 days post-MCT challenge, the rats were treated with Propantheline (1.0 mg/kg, i.p., twice a day) and Ethacridine (7.5 mg/kg, i.p., twice a day) (P+E) at the same time for 14 days. A separate group of rats was treated with either Propantheline (2.5 mg/kg, i.p., twice a day). RVSP was measured (A) and RV hypertrophy was calculated (B) at 28 days post-treatment. […] One-way ANOVA.

Series [5] concerns the target T1, HIF-2α (Homo sapiens, UniProt Q99814).
T1 construct: endogenous in cells; host or cells: 786-O cells stably expressing HRE-luciferase
Put plainly: HRE-luciferase activity in stable HRE/luciferase-expressing 786-O cells. In kind it is cell-based. To be noted: for HRE luciferase activity (HIF activity), result in words: stable HRE-luciferase 786-O cells. The procedure:
HRE, hypoxia-responsive element.
FIG. 5. […] PBS was used in CTL and compound C76 was used as a positive control. **, P<0.01, ****, P<0.0001. Student t test.
FIG. 7. Ethacridine is a potent HIF-α inhibitor. To validate the inhibitory effect of Ethacridine, stable 786-O cells expressing HRE-Luciferase was treated with Ethacridine at the indicated concentration for 24 h. Luciferase activity was then measured and normalized to control vehicle (DMSO) group. Ethacridine at 5 uM could inhibited approximately 80% HRE activity, i.e., HIF activity. Data are expressed as mean±SD. […]

Series [6] deals with HIF-2α. Put plainly: Western blotting of HIF-2α protein level. Format: cell-based. (In general: A western blot detects proteins with antibodies after separation by electrophoresis.)
Series [7] relates to 786-O cells. Put plainly: control SV40-luciferase activity in 786-O cells (toxicity). The conditions noted are these: for control SV40 luciferase activity (cell toxicity), result in words: quinidine at the doses tested; for SV40-Luc (of control): 2.5 uM. In kind it is cell-based, human.
The target in series [8] is human ether-à-go-go-related gene (hERG) channel (Homo sapiens, UniProt Q12809). The conditions noted are these: from reference 21; read-out: hERG channel inhibition IC50; cited from earlier work. For orientation: hERG is a cardiac potassium channel; its block is linked to QT prolongation.
Where [9] appears, read: MCT rat lungs, quinidine s.c. osmotic pump 10-12 mg/kg/day, 14 days.
[10] abbreviates: MCT rats, quinidine s.c. osmotic pump 10-12 mg/kg/day, 14 days.
Where [11] appears, read: MCT rats, quinidine s.c. osmotic pump 10-12 mg/kg/day, 14 days from 2 weeks post-MCT.

T1 sequence (Q99814 whole entry): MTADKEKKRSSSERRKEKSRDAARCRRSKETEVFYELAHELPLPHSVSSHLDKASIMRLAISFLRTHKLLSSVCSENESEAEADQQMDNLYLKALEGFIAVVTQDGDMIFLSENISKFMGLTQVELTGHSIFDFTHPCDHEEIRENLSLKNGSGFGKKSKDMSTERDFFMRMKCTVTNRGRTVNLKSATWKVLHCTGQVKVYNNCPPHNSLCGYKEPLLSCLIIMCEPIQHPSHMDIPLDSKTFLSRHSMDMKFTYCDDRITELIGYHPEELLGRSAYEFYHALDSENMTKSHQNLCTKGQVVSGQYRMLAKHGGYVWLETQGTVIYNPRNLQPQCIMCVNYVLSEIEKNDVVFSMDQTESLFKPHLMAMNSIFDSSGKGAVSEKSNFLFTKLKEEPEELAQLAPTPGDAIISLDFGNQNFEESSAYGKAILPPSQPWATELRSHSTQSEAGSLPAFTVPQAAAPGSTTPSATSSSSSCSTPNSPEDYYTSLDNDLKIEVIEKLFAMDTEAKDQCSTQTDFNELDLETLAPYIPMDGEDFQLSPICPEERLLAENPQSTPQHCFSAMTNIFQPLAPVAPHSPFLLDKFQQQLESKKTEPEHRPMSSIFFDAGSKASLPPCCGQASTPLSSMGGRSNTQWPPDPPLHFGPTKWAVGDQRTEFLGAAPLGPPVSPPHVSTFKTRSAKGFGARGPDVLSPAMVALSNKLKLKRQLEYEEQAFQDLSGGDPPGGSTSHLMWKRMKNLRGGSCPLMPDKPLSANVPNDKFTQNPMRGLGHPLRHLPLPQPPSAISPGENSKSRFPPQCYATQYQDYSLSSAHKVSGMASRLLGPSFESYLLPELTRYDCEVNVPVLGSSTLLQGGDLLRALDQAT
human ether-à-go-go-related gene (hERG) channel, sequence (Q12809 whole entry): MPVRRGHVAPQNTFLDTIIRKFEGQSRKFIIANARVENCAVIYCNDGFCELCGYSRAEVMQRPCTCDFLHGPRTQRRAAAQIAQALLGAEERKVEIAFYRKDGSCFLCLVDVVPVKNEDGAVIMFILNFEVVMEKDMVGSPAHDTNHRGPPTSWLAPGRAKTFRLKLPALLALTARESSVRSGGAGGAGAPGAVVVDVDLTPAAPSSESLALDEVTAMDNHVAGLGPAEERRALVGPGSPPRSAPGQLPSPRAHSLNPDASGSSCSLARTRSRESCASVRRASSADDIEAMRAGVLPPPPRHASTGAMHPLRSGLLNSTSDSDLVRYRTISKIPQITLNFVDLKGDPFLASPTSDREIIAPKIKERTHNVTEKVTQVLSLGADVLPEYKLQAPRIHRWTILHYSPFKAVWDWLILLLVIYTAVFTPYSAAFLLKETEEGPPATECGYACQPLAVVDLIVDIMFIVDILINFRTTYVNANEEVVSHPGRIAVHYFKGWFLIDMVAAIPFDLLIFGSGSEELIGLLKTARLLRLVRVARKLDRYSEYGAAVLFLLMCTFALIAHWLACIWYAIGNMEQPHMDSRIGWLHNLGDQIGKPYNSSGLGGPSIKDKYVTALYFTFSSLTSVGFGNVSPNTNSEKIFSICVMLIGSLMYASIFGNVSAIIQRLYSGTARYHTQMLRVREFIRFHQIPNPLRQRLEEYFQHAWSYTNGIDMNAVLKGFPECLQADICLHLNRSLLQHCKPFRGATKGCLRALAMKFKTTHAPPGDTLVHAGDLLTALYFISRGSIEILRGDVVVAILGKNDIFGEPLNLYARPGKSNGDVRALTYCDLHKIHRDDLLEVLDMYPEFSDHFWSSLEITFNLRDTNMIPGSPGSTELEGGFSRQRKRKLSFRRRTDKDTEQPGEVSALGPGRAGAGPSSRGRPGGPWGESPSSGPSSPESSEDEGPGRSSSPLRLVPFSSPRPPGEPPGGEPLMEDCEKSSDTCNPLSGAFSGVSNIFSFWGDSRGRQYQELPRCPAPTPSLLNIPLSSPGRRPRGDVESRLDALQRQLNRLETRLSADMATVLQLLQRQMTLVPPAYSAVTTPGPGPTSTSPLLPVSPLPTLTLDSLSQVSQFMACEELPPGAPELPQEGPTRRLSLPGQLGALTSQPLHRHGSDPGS

As for `CC(C)[N+](C)(CCOC(=O)C1c2ccccc2Oc2ccccc21)C(C)C.[Br-]` [Propantheline], the “SDF1 expression (control = 1.00)” value in series [1] (40 uM, DMOG alone 1.80 ± 0.06) is on record as 0.53 ± 0.37; in series [1] (40 uM, DMOG alone 1.80 ± 0.06, listed as propantheline), “mainly inhibited SDF-1 expression”. In addition, the “PDGF-B expression (control = 1.00)” value in series [2] (40 uM, DMOG alone 2.05 ± 0.33) came to 1.55 ± 0.44. For the same compound, in series [3] (40 uM, DMOG alone 2.36 ± 0.23), the “Endothelin-1 expression (control = 1.00)” value is 1.70 ± 0.45.
With `C=C[C@H]1C[N@]2CC[C@H]1C[C@@H]2[C@@H](O)c1ccnc2ccc(OC)cc12` [Quinidine, (2-Ethenyl-4-azabicyclo[2.2.2]oct-5-yl)-(6-methoxyquinolin-4-yl)-methanol], the “expression of HIF-2α downstream target genes in lungs” value in series [4] (MCT rat lungs, quantitative RT-PCR, quinidine vs vehicle) is on record as “normalized or markedly inhibited; also recorded: suppressed HIF-2α activation in MCT-rat lungs”. Moreover, in series [4] (setting [9]), the “muscularization of distal pulmonary arteries (<75 μm)” value is recorded as “markedly attenuated; also recorded: Marked decrease in muscularization of distal pulmonary arterioles” and the “pulmonary artery wall thickening (pulmonary vascular remodeling)” value was “markedly attenuated; also recorded: reversed pulmonary vascular remodeling”. Besides, the “survival, result in words” value in series [4] (MCT rats, Log-rank test) is given as “promoted survival”. Besides, the “PH (RVSP)” value in series [4] (MCT rats, quinidine alone 10 mg/kg oral twice a day, 14 days) is given as “didn't inhibit PH”. In addition, in series [4] (setting [10]), the RV contractility result is “Improved RV contractility” and the “RV wall thickness (echocardiography)” value is on record as “decreased RV wall thickness; also recorded: reduction in RV wall thickness”. Besides, in series [4] (setting [11]), the RV hypertrophy entry was “marked decrease; also recorded: reduced” and the “right ventricular systolic pressure (RVSP)” value is reported as “marked decrease; also recorded: reduced RVSP”. Further, the survival rate in series [4] (day 28 post-MCT challenge with a lethal dose, all vehicle rats had died) is listed as 90%. Moreover, in series [5] (786-0, 786-O cells, 20 uM), the inhibition (in general, the change of the read-out against control, counted positive when it falls) at 20 µM was roughly 70%. In addition, the “HRE luciferase activity (HIF activity), result in words” value (“HRE luciferase activity (HIF activity)” below) in series [5] (24 h) is reported as “repressed HRE luciferase (Luc) activity in a dose-dependent manner”. In addition, in series [5] (24 h, listed as quinidine), the “HRE luciferase activity (HIF activity)” value is recorded as “inhibition of HRE/luciferase activity in a dose-dependent manner”. Moreover, in series [6], the HIF-2α protein level entry was “didn't inhibit expression”. The “control SV40 luciferase activity (cell toxicity), result in words” value in series [7] was “didn't repress control SV40 luciferase activity”. Also, the “control SV40 luciferase activity (cell toxicity), result in words” value in series [7] (listed as quinidine) is on record as “without obvious toxicity”.
For `CCOc1ccc2nc3cc(N)ccc3c(N)c2c1` [Ethacridine, 7-ethoxyacridine-3,9-diamine], the “PH (RVSP)” value in series [4] (MCT rats, ethacridine alone 7.5 mg/kg i.p. twice a day, 14 days) is given as “didn't inhibit PH”. This compound returned an inhibition at 2.5 µM in series [5] (786-0, 786-O cells, 2.5 uM) of 70%. Further, in series [5] (786-0, 786-O cells, 5 uM, 24 h, read-out: inhibition of HRE activity, i.e., HIF activity), the inhibition at 5 µM is roughly 80%. Moreover, the “HRE luciferase activity (HIF activity)” value in series [5] (24 h) is listed as “potent HIF α inhibitors”. In addition, the “SDF1 expression (control = 1.00)” value is given as 12.9 ± 8.1 in series [1] (20 & 30 uM, DMOG alone 1.80 ± 0.06) and “induced SDF-1 expression” in series [1] (20 & 30 uM, DMOG alone 1.80 ± 0.06, listed as ethacridine). Besides, the “PDGF-B expression (control = 1.00)” value was 0.52 ± 0.31 in series [2] (20 & 30 uM, DMOG alone 2.05 ± 0.33) and “markedly inhibited” in series [2] (20 & 30 uM, DMOG alone 2.05 ± 0.33, listed as ethacridine). Besides, the “Endothelin-1 expression (control = 1.00)” value in series [3] (20 & 30 uM, DMOG alone 2.36 ± 0.23) is 0.12 ± 0.07; in series [3] (20 & 30 uM, DMOG alone 2.36 ± 0.23, listed as ethacridine), “markedly inhibited”.
For the compound hydroxyethylapoquinine [HEAQ], in series [4] (MCT rats, HEAQ 20 mg/kg oral daily for 14 days from 14 days post-MCT), the “PH (RVSP)” value is given as “attenuate PH; also recorded: markedly reduced RVSP”. In series [5] (24 h), the “HRE luciferase activity (HIF activity)” value is “could inhibit HIF activity as efficiently as Quinidine”. Further, the pIC50 (usually the negative decadic logarithm of the IC50, by convention in mol/L) in series [8] is less than 4.05.
On to `COc1cc([C@@H]2c3cc4c(cc3[C@@H](O[C@@H]3O[C@@H]5CO[C@@H](C)O[C@H]5[C@H](O)[C@H]3O)[C@H]3COC(=O)[C@H]23)OCO4)cc(OC)c1O` [Etoposide, (5S,5aR,8aR,9R)-5-[[(2R,4aR,6R,7R,8R,8aS)-7,8-dihydroxy-2-methyl-4,4a,6,7,8,8a-hexahydropyrano[3,2-d][1,3]dioxin-6-yl]oxy]-9-(4-hydroxy-3,5-dimethoxyphenyl)-5a,6,8a,9-tetrahydro-5H-[2]benzofuro[6,5-f][1,3]benzodioxol-8-one], for which the “HRE-Luc (of control)” value in series [5] (786-O cells, 1.25 uM) is 0.34. Besides, the “HRE luciferase activity (HIF activity)” value in series [5] (24 h) is “potent HIF α inhibitors”. Also, in series [1] (20 & 40 uM, DMOG alone 1.80 ± 0.06), the “SDF1 expression (control = 1.00)” value came to 1.25 ± 0.80. Further, the “PDGF-B expression (control = 1.00)” value in series [2] (20 & 40 uM, DMOG alone 2.05 ± 0.33) is reported as 0.77 ± 0.37; in series [2] (20 & 40 uM, DMOG alone 2.05 ± 0.33, listed as etoposide) it was “markedly inhibited”. In addition, the “Endothelin-1 expression (control = 1.00)” value is listed as 0.47 ± 0.50 in series [3] (20 & 40 uM, DMOG alone 2.36 ± 0.23) and “markedly inhibited” in series [3] (20 & 40 uM, DMOG alone 2.36 ± 0.23, listed as etoposide).
As for `CC[N+](C)(CC)CCOC(=O)C1c2ccccc2Oc2ccccc21` [Methantheline], the inhibition at 2.5 µM in series [5] (786-0, 786-O cells, 2.5 uM) lay within 65 to 77%. In series [5] (786-O cells, 2.5 uM), the “HRE-Luc (of control)” value was 0.31. In series [5] (24 h), the “HRE luciferase activity (HIF activity)” value was “potent HIF α inhibitors”. Further, the figures for the “SV40-Luc (of control)” value in series [7] and in series [7] (listed as methantheline) were 0.86 and “without clear toxicity”, respectively.
`CCc1c2c(nc3ccc(OC(=O)N4CCC(N5CCCCC5)CC4)cc13)-c1cc3c(c(=O)n1C2)COC(=O)[C@]3(O)CC` [Irinotecan, [(19S)-10,19-diethyl-19-hydroxy-14,18-dioxo-17-oxa-3,13-diazapentacyclo[11.8.0.0^2,11.0^4,9.0^15,20]henicosa-1(21),2,4(9),5,7,10,15(20)-heptaen-7-yl] 4-piperidin-1-ylpiperidine-1-carboxylate; hydrochloride] had an inhibition at 2.5 µM in series [5] (786-0, 786-O cells, 2.5 uM) of 65 to 77%. Moreover, the “HRE-Luc (of control)” value in series [5] (786-O cells, 2.5 uM) is listed as 0.23. In addition, the “HRE luciferase activity (HIF activity)” value in series [5] (24 h) is “potent HIF α inhibitors”. The “SV40-Luc (of control)” value in series [7] (hydrochloride) is 0.99; in series [7] (listed as irinotecan, hydrochloride) it was “without clear toxicity”.
